Data: publication PMC12206857 (Frontiers in Microbiology, 2025)
Entries after “also recorded” stand apart in the source; their conditions may differ. Read-outs that look alike come from different tables or passages of the source. *1 amine or outer side, *2 acyl side, *3 side chain or, on linkers, in order; H or OH if unused. Where a SMILES comes first, the peptide text is derived from it. [ ]: non-standard residue; d: D form. X1 = CC(C)CCCCCCCCC[C@H](CC(=O)[*:2])N[*:1]

Assays:
DON and ZEN = test system: DON and ZEN; parameters: species or system Fusarium graminearum on corn seeds; settings: in vivo
trypsin = settings: 5 mg/mL enzyme, 1 h, 37°C, stopped 10 min at 100°C; read-out antifungal activity against F. graminearum by filter paper method; n = 3
F. graminearum [1] = settings: mixture of bacillomycin D with different fatty acid chain lengths; ref Gu et al., 2017; cited from earlier work
pepsin = settings: 5 mg/mL enzyme, 1 h, 37°C, stopped 10 min at 100°C; read-out antifungal activity against F. graminearum by filter paper method; n = 3
proteinase K = proteinase K (Parengyodontium album, UniProt P06873); settings: n = 3
proteinase K, sequence (P06873 106-384): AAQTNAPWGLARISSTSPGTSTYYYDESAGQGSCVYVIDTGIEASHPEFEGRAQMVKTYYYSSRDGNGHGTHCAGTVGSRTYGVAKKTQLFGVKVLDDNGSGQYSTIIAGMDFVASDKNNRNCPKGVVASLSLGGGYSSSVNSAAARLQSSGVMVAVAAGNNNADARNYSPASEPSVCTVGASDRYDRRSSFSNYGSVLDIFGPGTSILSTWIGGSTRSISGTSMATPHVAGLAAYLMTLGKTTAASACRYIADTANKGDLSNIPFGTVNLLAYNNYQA

F. graminearum hyphae = assay type: cell-based, Fusarium graminearum; settings: 16 and 32 μg/mL, 12 h in PDB at 28°C
F. graminearum [2] = assay type: cell-based, Fusarium graminearum; settings: dose-dependent, DCFH-DA fluorescence
F. graminearum [3] = assay type: in vivo, Fusarium graminearum on corn seeds; settings: seeds soaked in 64 μg/mL, sprayed with spores 1 × 10^5 CFU/mL, 28°C, 10 seeds per group
papain = biological target: T1, papain (Carica papaya, UniProt P00784); settings: n = 3
T1 sequence (P00784 134-345): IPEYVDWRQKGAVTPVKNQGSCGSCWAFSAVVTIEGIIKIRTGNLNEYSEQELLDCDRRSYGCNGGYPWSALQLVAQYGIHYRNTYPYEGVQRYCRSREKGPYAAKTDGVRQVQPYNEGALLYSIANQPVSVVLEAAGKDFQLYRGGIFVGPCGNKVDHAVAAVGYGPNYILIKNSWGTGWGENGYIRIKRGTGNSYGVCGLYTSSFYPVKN

F. graminearum [4] = assay type: physicochemical, Fusarium graminearum; settings: filter paper method; for Effect of divalent cations Fe2+, Mg2+, Ca2+ on antifungal activity: 10 nM metal ion; for Thermal stability of antifungal activity: 25°C, 50°C, 100°C water for 30 min
F. graminearum [5] = assay type: cell-based, Fusarium graminearum; settings: DiSC3(5) fluorescence
F. graminearum conidia = settings: ref Gong et al., 2015; cited from earlier work
Fusarium oxysporum = settings: 25 μg/mL or 50 μg/mL; ref Hua et al., 2023; cited from earlier work
F. graminearum cells = settings: ref Liang et al., 2023; cited from earlier work

## CC(C)CCCCCCCCC[C@@H]1CC(=O)N[C@@H](CC(N)=O)C(=O)N[C@H](Cc2ccc(O)cc2)C(=O)N[C@H](CC(N)=O)C(=O)N2CCC[C@H]2C(=O)N[C@@H](CCC(=O)O)C(=O)N[C@H](CO)C(=O)N[C@@H]([C@@H](C)O)C(=O)N1 [bacillomycin D, C15-bacillomycin D] (cyclo([X1]N[dY][dN]PE[dS]T))
DON and ZEN
  DON toxin synthesis in treated maize seeds: no detectable synthesis
  ZEN toxin synthesis in treated maize seeds: no detectable synthesis
trypsin
  Activity after treatment with trypsin: retained their activity
F. graminearum [1]
  Half-inhibitory concentration (IC50) on F. graminearum: approximately 30 μg/mL
pepsin
  Activity after treatment with pepsin: retained their activity
Proteinase K
  Activity after treatment with proteinase K: retained their activity
F. graminearum hyphae
  Hyphal morphology by SEM: induced abnormal development
F. graminearum [2]
  ROS levels in F. graminearum cells (in words): induced abnormal ROS accumulation
F. graminearum [3]
  Infection of maize seeds by F. graminearum: completely preventing infection
papain
  Activity after treatment with papain: retained their activity
F. graminearum [4]; 10 nM Na+, K+, Ca2+, Mg2+, Cu2+, Fe2+, Fe3+, room temperature, 2.5 mg/mL, n = 3
  Stability of antifungal activity in the presence of metal ions: retained stable antibacterial activity
F. graminearum [4]; room temperature, 2.5 mg/mL, n = 3
  Effect of divalent cations Fe2+, Mg2+, Ca2+ on antifungal activity: enhance their antifungal activity
F. graminearum [4]; room temperature, 2.5 mg/mL, n = 3, listed as eumelanin
  Effect of divalent cations Fe2+, Mg2+, Ca2+ on antifungal activity: significantly enhanced
F. graminearum [4]; 7 μL of 2.5 mg/mL, colony diameter after 24 h at 28°C, n = 3
  Thermal stability of antifungal activity: remains stable
F. graminearum [4]; 7 μL of 2.5 mg/mL, colony diameter after 24 h at 28°C, n = 3, listed as Bacillomycin D
  Thermal stability of antifungal activity: maintained stable antibacterial activity
F. graminearum [4]; pH 2–12, room temperature
  Antifungal activity across pH range 2–12: maintains good antifungal activity
F. graminearum [4]; pH 8 or 10 (pH 8–10), room temperature, 7 μL of 2.5 mg/mL, colony diameter after 24 h at 28°C, n = 3
  pH stability of antifungal activity, pH 8 or 10: significant enhancement of antibacterial activity; also recorded: significant increase in antifungal activity
F. graminearum [4]; pH 14, room temperature, 2.5 mg/mL, n = 3
  pH stability of antifungal activity, pH 14: complete loss of activity
F. graminearum [4]; pH values from 2 to 14 other than 8, 10 and 14, room temperature, 2.5 mg/mL, n = 3
  pH stability of antifungal activity, other pH conditions: the activity remained stable
F. graminearum [5]
  Cell membrane potential (in words): induced depolarization

## iturin A
F. graminearum conidia
  MIC, complete killing of F. graminearum conidia: 50 µg/mL
Fusarium oxysporum
  Cell membrane integrity of Fusarium oxysporum: disrupted
  ROS in Fusarium oxysporum: significantly increased

## surfactin
F. graminearum cells
  Intracellular ROS accumulation in F. graminearum cells: induce intracellular ROS accumulation
